Experimental data as given in ChEMBL document CHEMBL2429852, “Synthesis and evaluation of new chalcones, derived pyrazoline and cyclohexenone derivatives as potent antimicrobial, antitubercular and antileishmanial agents” (Med Chem Res, 2013).
Converted amounts (≈) assume the structure as drawn.

Columns and labels:
Staphylococcus aureus [1] = experiment: Antibacterial activity against Staphylococcus aureus MTCC 96 assessed as growth inhibition by broth microdilution method; assay type: functional
Candida albicans [2] = experiment: Potency index, ratio of griseofulvin MIC to compound MIC for Candida albicans MTCC 227; assay type: functional
Aspergillus clavatus = experiment: Antifungal activity against Aspergillus clavatus MTCC 1323 assessed as growth inhibition by broth microdilution method; assay type: functional
Leishmania braziliensis = experiment: Antileishmanial activity against promastigote stage of Leishmania braziliensis H3 assessed as parasite growth inhibition after 72 hrs by Neubauer chamber counting method; assay type: functional, organism-based
[3] = test system: Mycobacterium tuberculosis; experiment: Antitubercular activity against Mycobacterium tuberculosis H37Rv assessed as growth inhibition after 12 to 28 days by Lowenstein-Jensen agar method; assay type: functional; conditions: for MIC: Mycobacterium tuberculosis, H37Rv
Pseudomonas aeruginosa = experiment: Antibacterial activity against Pseudomonas aeruginosa MTCC 2488 assessed as growth inhibition by broth microdilution method; assay type: functional
Streptococcus pyogenes [4] = experiment: Antibacterial activity against Streptococcus pyogenes MTCC 443 assessed as growth inhibition by broth microdilution method; assay type: functional
Escherichia coli [5] = experiment: Antibacterial activity against Escherichia coli MTCC 442 assessed as growth inhibition by broth microdilution method; assay type: functional
Candida albicans [6] = experiment: Antifungal activity against Candida albicans MTCC 227 assessed as growth inhibition by broth microdilution method; assay type: functional
Aspergillus niger = experiment: Antifungal activity against Aspergillus niger MTCC 282 assessed as growth inhibition by broth microdilution method; assay type: functional
Escherichia coli [7] = experiment: Potency index, ratio of ampicillin MIC to compound MIC for Escherichia coli MTCC 442; assay type: functional
Streptococcus pyogenes [8] = experiment: Potency index, ratio of ampicillin MIC to compound MIC for Streptococcus pyogenes MTCC 443; assay type: functional
Staphylococcus aureus [9] = experiment: Potency index, ratio of ampicillin MIC to compound MIC for Staphylococcus aureus MTCC 96; assay type: functional
[10] = Leishmania braziliensis, H3, 72 h, read-out: IC50

Row | Compound | MIC99 (Staphylococcus aureus [1]) | Ratio (Candida albicans [2]) | MIC99 (Aspergillus clavatus) | IC50 (Leishmania braziliensis) | growth inhibition (GI) [3] | MIC [3] | MIC99 (Pseudomonas aeruginosa) | MIC99 (Streptococcus pyogenes [4]) | MIC99 (Escherichia coli [5]) | MIC99 (Candida albicans [6]) | MIC99 (Aspergillus niger) | Ratio (Escherichia coli [7]) | Ratio (Streptococcus pyogenes [8]) | IC50 (Leishmania braziliensis; [10]) | Ratio (Staphylococcus aureus [9])
1 | O=C(/C=C/C=C/c1ccccc1)c1cccc([N+](=O)[O-])c1 | 125 µg/mL | 2 | 1000 µg/mL | Not Active | 97% | 1000 µg/mL (≈ 3580 µM) | 100 µg/mL | 125 µg/mL | 200 µg/mL | 250 µg/mL | 1000 µg/mL |  |  |  | 
2 | COc1cc(C2CC(c3cccc([N+](=O)[O-])c3)=NN2C(C)=O)cc(OC)c1OC (centres undefined) | 250 µg/mL | 2 | 500 µg/mL | Not Active | 99% | 12.5 µg/mL (≈ 31.3 µM) | 200 µg/mL | 250 µg/mL | 250 µg/mL | 250 µg/mL | 500 µg/mL |  |  |  | 
3 | COc1ccc(C2CC(c3cccc([N+](=O)[O-])c3)=NN2C(C)=O)c(OC)c1OC (centres undefined) | 250 µg/mL |  | 250 µg/mL | Not Active | 99% | 250 µg/mL (≈ 626 µM) | 100 µg/mL | 250 µg/mL | 100 µg/mL | 1000 µg/mL | 250 µg/mL |  |  |  | 
4 | COc1cc(OC)c(C2CC(c3cccc([N+](=O)[O-])c3)=NN2C(C)=O)cc1OC (centres undefined) | 100 µg/mL |  | 250 µg/mL | Not Active | 98% | 500 µg/mL (≈ 1250 µM) | 125 µg/mL | 125 µg/mL | 125 µg/mL | 1000 µg/mL | 250 µg/mL |  |  |  | 
5 | CC(=O)N1N=C(c2cccc([N+](=O)[O-])c2)CC1c1ccc2ccccc2c1 (centres undefined) | 100 µg/mL | 2 | > 1000 µg/mL | Not Active | 98% | 1000 µg/mL (≈ 2780 µM) | 250 µg/mL | 100 µg/mL | 250 µg/mL | 250 µg/mL | > 1000 µg/mL |  |  |  | 
6 | CC(=O)N1N=C(c2cccc([N+](=O)[O-])c2)CC1/C=C/c1ccccc1 (centres undefined) | 250 µg/mL | 2 | > 1000 µg/mL | Not Active | 98% | 250 µg/mL (≈ 745 µM) | 100 µg/mL | 25 µg/mL | 62.5 µg/mL | 500 µg/mL | > 1000 µg/mL | 4 | 5 |  | 
7 | COc1ccc(C2CC(c3cccc([N+](=O)[O-])c3)=NN2)cc1 (centres undefined) | 500 µg/mL | 2 | 1000 µg/mL |  | 99% | 250 µg/mL (≈ 841 µM) | 100 µg/mL | 500 µg/mL | 62.5 µg/mL | 250 µg/mL | 1000 µg/mL |  |  | > 100 µM | 
8 | COc1ccc(/C=C/C(=O)c2cccc([N+](=O)[O-])c2)cc1OC | 200 µg/mL |  | > 1000 µg/mL |  | 98% | 500 µg/mL (≈ 1600 µM) | 200 µg/mL | 200 µg/mL | 100 µg/mL | 500 µg/mL | > 1000 µg/mL |  |  | > 100 µM | 
9 | O=C(/C=C/c1ccc2c(c1)OCO2)c1cccc([N+](=O)[O-])c1 | 250 µg/mL | 2 | 1000 µg/mL | Not Active | 99% | 250 µg/mL (≈ 841 µM) | 250 µg/mL | 250 µg/mL | 250 µg/mL | 250 µg/mL | 1000 µg/mL |  |  |  | 
10 | O=C(/C=C/c1ccc2ccccc2c1)c1cccc([N+](=O)[O-])c1 | 100 µg/mL |  | 1000 µg/mL | Not Active | 98% | 500 µg/mL (≈ 1650 µM) | 200 µg/mL | 125 µg/mL | 62.5 µg/mL | 500 µg/mL | 1000 µg/mL | 2 |  |  | 2
11 | CC1(C)S[C@@H]2[C@H](NC(=O)[C@H](N)c3ccccc3)C(=O)N2[C@H]1C(=O)O [AMPICILLIN] | 250 µg/mL |  |  |  |  |  | 100 µg/mL | 100 µg/mL | 100 µg/mL |  |  |  |  |  | 
12 | COC1=CC(=O)C[C@@H](C)[C@]12Oc1c(Cl)c(OC)cc(OC)c1C2=O [GRISEOFULVIN] |  |  | 100 µg/mL |  |  |  |  |  |  | 500 µg/mL | 100 µg/mL |  |  |  | 
13 | CO[C@H]1/C=C/O[C@@]2(C)Oc3c(C)c(O)c4c(O)c(c(/C=N/N5CCN(C)CC5)c(O)c4c3C2=O)NC(=O)/C(C)=C\C=C\[C@H](C)[C@H](O)[C@@H](C)[C@@H](O)[C@@H](C)[C@H](OC(C)=O)[C@@H]1C [RIFAMPIN] |  |  |  |  | 98% | 40 µg/mL (≈ 48.6 µM) |  |  |  |  |  |  |  |  | 
